In patent publication US20170226139A1, “CRYSTALLINE SALTS OF (Z)-O-OCTADEC-9-EN-1-YL O,O-DIHYDROGEN PHOSPHOROTHIOATE” (priority 2013, published 2017):

Legend:
[1] = target: LPA2 receptors from the rhesus (Macaca mulatta, UniProt I2CXV3); test: Calcium-mobilization assay (FURA-2), rhesus LPA2; format: cell-based
Procedure: We investigated structure-activity relationships across species, LPAR subtypes and between Rx100 and two known process impurities encountered in manufacture: Rx103 (‘E’ isomer) and Rx200 (oleyl phosphate and impurity, which can be an Rx100 degradant along with oleyl alcohol). Rx100, Rx103, Rx200 and native LPA were investigated at different human LPAR subtypes. In addition, the activity of these compounds was evaluated at LPA2 receptors from the rhesus, rat and mouse species. Human LPA1/2/3 subtypes were transfected into mouse embryonic fibroblasts (MEF) or rat hepatoma cells (RH7777)—both of which are normally non-responsive or null to LPA. Human LPA4 was transfected into Chinese hamster ovary (CHO) cells and LPA5 into the B103 neuroblastoma cell line. […] The B103 rat neuroblastoma cell line is endogenously nonresponsive to LPA but expresses heterologous LPA5 receptors well. […] LPAR activation elicits a G-protein-mediated transient rise in intracellular calcium level that is proportional to the concentration of LPA applied. The intracellular calcium level was quantified by the calcium-selective fluorescent indicator FURA-2 (e.g., increased intracellular calcium surge=increased fluorescence).

[2] = target: T1, cloned hERG Potassium Channels expressed in human embryonic kidney cells (Homo sapiens, UniProt Q12809); test: hERG assay; format: cell-based
T1 construct: expressed in transfected cells; host or cells: human embryonic kidney cells
T1 sequence (Q12809 whole entry): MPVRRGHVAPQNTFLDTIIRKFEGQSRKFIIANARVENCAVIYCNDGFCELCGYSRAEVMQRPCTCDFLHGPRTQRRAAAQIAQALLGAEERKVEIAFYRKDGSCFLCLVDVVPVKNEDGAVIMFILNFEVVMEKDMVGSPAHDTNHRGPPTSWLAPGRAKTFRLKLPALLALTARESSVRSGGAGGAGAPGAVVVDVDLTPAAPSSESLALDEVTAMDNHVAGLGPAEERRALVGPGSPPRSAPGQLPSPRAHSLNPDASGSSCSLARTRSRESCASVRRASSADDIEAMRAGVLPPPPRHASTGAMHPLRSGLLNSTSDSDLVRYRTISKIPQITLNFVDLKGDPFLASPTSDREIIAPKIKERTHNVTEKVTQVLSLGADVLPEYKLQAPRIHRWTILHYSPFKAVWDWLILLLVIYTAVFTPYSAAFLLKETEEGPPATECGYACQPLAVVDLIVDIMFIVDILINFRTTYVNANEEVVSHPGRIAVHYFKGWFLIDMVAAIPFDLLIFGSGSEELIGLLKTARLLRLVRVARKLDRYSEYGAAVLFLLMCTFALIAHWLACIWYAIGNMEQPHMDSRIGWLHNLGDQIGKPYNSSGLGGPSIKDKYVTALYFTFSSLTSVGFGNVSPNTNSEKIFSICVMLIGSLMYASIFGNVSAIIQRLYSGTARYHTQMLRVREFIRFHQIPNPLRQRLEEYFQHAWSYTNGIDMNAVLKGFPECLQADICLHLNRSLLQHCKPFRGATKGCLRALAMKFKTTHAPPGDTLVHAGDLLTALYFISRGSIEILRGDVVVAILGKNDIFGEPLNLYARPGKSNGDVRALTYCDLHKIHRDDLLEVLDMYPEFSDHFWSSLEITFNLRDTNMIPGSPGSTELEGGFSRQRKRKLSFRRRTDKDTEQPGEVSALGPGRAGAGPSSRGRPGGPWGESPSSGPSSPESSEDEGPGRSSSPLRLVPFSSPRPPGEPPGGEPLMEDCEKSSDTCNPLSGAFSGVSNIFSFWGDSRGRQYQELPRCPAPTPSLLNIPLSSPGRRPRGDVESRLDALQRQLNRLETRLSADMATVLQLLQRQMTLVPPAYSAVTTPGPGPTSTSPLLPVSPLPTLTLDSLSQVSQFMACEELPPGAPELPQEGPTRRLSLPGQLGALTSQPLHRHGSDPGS

Sequence of LPA2 receptors from the rhesus (I2CXV3 1-351): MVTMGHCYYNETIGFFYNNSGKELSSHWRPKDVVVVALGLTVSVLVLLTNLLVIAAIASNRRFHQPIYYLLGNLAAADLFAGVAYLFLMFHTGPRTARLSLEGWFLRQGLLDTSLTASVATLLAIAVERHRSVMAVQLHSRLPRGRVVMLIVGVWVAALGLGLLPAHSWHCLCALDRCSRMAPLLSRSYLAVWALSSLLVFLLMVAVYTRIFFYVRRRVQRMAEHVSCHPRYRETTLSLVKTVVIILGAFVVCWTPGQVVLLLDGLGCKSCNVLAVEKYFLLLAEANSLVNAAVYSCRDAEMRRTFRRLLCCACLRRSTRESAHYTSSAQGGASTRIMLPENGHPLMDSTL

Q: `CCCCCCCC/C=C\CCCCCCCCOP(O)(O)=S` [Rx100, (Z)—O-octadec-9-en-1-yl O,O-dihydrogen phosphorothioate] was tested. Which EC50 [1] did it give?
A: 0.104 µM

Q: What about the Emax ([1]; read-out: Emax (% of LPA)) of the same compound?
A: 100%

Q: What about the IC50 [2] of the same compound?
A: ~600 µM

Q: What about the “hERG IC50 relative to anticipated therapeutic concentrations” value [2] of the same compound?
A: 100 fold
